Laboratory results from patent US20120328631A1, “EP1 INHIBITION” (UNIVERSITY OF ROCHESTER, priority 2010, published 2012).

Experiments:
Type in all cases: cell-based, mouse
EP2 and EP4 receptors = assay: cAMP-Glo Assay in bone marrow cell cultures; parameters: dose or concentration left out as unconfirmed; details: bone marrow cell cultures from wild type and EP1−/− mice
Protocol: Bone marrow cells were isolated from 10-week-old EP1^−/− mice and wild-type mice. After culturing for 7 days, cells were treated with PGE2 ([…]) or vehicle for 24 hours. […] The representative photomicrographs are shown at 200× original magnification. Statistical comparisons were performed using Student's T-test. “a” indicates p<0.05 compared to wild-type, “b” indicates p<0.05 compared to EP1^−/−. β-actin served as the loading control.
(§1) Bone marrow cells were isolated from 10-week-old EP1^−/− and C57BL/6J mice. Cells were cultured in 2 ml α-MEM containing 10% FBS at 5×10^6 cells/well in 6-well plates. After being cultured for 7 days, the medium was replaced with media containing beta-glycerophosphate and ascorbic acid, and the media was changed every two days thereafter. Cells were harvested on day 10, 12, 14, 17 and 21 after plating for alkaline phosphatase and alizarin red staining, and mRNA analysis by quantitative real-time PCR. Cell proliferation was examined using the Cell Proliferation ELISA BrdU (colorimetric) immunoassay kit (Roche; Indianapolis, Ind.) according to the manufacturer's instructions. Cell viability was examined using the CellTiter-Blue Cell Viability Assay (Promega; Madison, Wis.) according to the manufacturer's instructions. Intracellular cAMP activity in bone marrow cells was examined using the cAMP-Glo Assay (Promega) according to the manufacturer's instructions.

fibronectin = assay: Fibronectin expression in bone marrow cells (Western blotting, real-time PCR)
Protocol: Bone marrow cells were collected from 10-week-old EP1^−/− and wild-type mice and treated with 3 μM PGE2 for 24 hours before harvest. Total protein was extracted from the cultured cells at day 17 and RNA was extracted at days 10, 12, 14, 17 and 21 after culture. Western blotting (FIG. 10A) and real-time PCR (FIG. 10B) were performed to examine the expression levels of fibronectin. […] Statistical comparisons were performed using 2-way ANOVA followed by Dunnett's test. a=P<0.05 vs. wild-type, b=P<0.05 vs. control, c=P<0.05 vs. PGE2.
(§2) Relative RNA levels of EP1 and fibronectin were determined by real-time PCR (FIGS. 11A and 11B). Immunohistochemistry was performed using mouse fibronectin primary antibody on the femur fracture tissue samples collected from 10-week-old EP1^−/− and wild-type mice at 3 and 7 days post-fracture (FIG. 11C). Statistical comparisons were performed using 2-way ANOVA followed by Student's t-test. a=P<0.05 vs. wild-type, b=P<0.05 vs. control, c=P<0.05 vs. PGE2.
(§3) Mice were sacrificed post fracture at 3, 7, 10, 14, 21 and 28 days (N=4). Fracture callus tissue samples were carefully dissected from soft tissue and homogenized using the TissueLyzer (Qiagen; Valencia, Calif.). Total RNA was then extracted from homogenized samples by the RNeasy Fibrous Tissue Midi Kit (Qiagen) according to the manufacturer's instructions. One microgram aliquots of RNA were reverse transcribed into cDNA using the iScript cDNA Synthesis Kit (Bio-Rad; Hercules, Calif.). Real-time […] was performed using the Rotor Gene 6000 real-time DNA amplification system (Qiagen) according to the manufacturer's instruction. […]
Bone marrow cells were washed with cold phosphate-buffered saline (PBS) three times and lysed on ice in Golden Lysis Buffer (GLB) for 30 minutes as previously described (Li et al., Exp. Cell Res. 300:159-69 (2004)). […] The immune complexes were detected using NBT/BCIP substrate (Pierce Biotechnology).

[1] = test system: primary bone marrow stromal cells; assay: Bone nodule formation / mineralization (Alizarin red staining) in bone marrow cell cultures
Protocol: (§4) An EP1 expression vector was transfected into the EP1^−/− bone marrow cells by electroporation. […] Bone marrow progenitor cells at day 12 after culture were treated with SC19220 (10 μm) for 30 minutes followed by treatment with PGE2 (3 μm). After 24 hours, cells were stained with Alizarin red (FIGS. 12C and 12D). RNA extracted from the cultures was examined for osteocalcin expression (FIG. 12E). Statistical comparisons were performed using Student's t-test. a=P<0.05 vs. control, b=P<0.05 vs. PGE2.
Increasing concentrations of fibronectin were added to bone marrow cell cultures at day 12. 24 hours later, cells were stained with Alizarin Red (FIGS. 13A and 138) or harvested for real-time PCR (FIG. 13B). Statistical comparisons were performed using Student's t-test, a=P<0.05 vs. control.
as §1

osteocalcin = assay: Osteocalcin expression by real-time PCR in bone marrow cell cultures; details: cultures treated with SC19220 and PGE2, RNA
Protocol: as §4
as §1, with “Intracellular cAMP activity in bone marrow cells was examined using the cAMP-Glo Assay (Promega) according to the manufacturer's instructions.” left out

EP1 mRNA = assay: siRNA knock down of EP1 expression in primary bone marrow stromal cells (real-time PCR); details: primary bone marrow stromal cells transfected with EP1 siRNA
Protocol: as §2, §3
To further confirm regulation of fibronectin by the PGE2-EP1 signaling pathway, siRNA as described above was used to knock down EP1 expression in primary bone marrow stromal cells. […] Fibronectin expression levels were examined by quantitative real-time PCR.

In the case of CCCCC[C@H](O)/C=C/[C@H]1[C@H](O)CC(=O)[C@@H]1C/C=C\CCCC(=O)O [PGE2], the “levels of cAMP” value (EP2 and EP4 receptors) is reported as “similarly enhanced”, the fibronectin expression (fibronectin; cells with control siRNA, quantitative real-time PCR) is reported as “stimulate fibronectin expression” and the “expression of fibronectin (protein and mRNA)” value (fibronectin; wild-type bone marrow cells compared with EP1−/− cells, 3 μM PGE2 for 24 hours) is reported as “dramatically increased”.
CC(=O)NNC(=O)N1Cc2ccccc2Oc2ccc(Cl)cc21 [SC19220, 8-chloro-dibenz[b,f][1,4]oxazepine-10(11H)-carboxy-(2-acetyl)hydrazide] was tested, and the bone nodule formation ([1]; primary bone marrow cell cultures at day 12, SC19220 (10 μm) for 30 minutes, then PGE2 (3 μm), 24 hours, Alizarin red) was “accelerated bone nodule formation”, the “time in culture at which bone nodule formation was induced” value ([1]; wild-type cells, 12 day cultures treated with antagonist and PGE2 for 24 hours, untreated cultures typically form nodules following 14 days) was ≤ 13 days and the “expression level of osteocalcin” value (osteocalcin) was “increased”.
In the case of “EP1 siRNA: siRNA used to knock down EP1 expression; example sequences SEQ ID NO:21 and SEQ ID NO:22 (chain 1 AGCUUGUCGGUAUCAUGGUTT; chain 2 ACUUCUAAGCACACCAGATT; chemistry not given here)”, the “decrease of EP1 mRNA” value (EP1 mRNA) is reported as “about 40%” and the PGE2-stimulated fibronectin expression (fibronectin; cells transfected with EP1 siRNA vs control siRNA, quantitative real-time PCR) is reported as “inhibited”.
In the case of fibronectin, the bone nodule formation ([1]; wild-type bone marrow cells, 5 μg/ml fibronectin added at day 12, 24 hours, alizarin red) is reported as “did not alter bone nodule formation”, the mineralization ([1]; wild-type bone marrow cells, 12.5 μg/ml fibronectin added at day 12, 24 hours, alizarin red) is reported as “significantly reduced mineralization” and the mineralization ([1]; wild-type bone marrow cells, 25 μg/ml fibronectin added at day 12, 24 hours, alizarin red) is reported as “significantly reduced mineralization”.
